Patent US4536335A, “Carbapenem antibiotics” (Bristol-Myers Company, priority 1983, dated 1985)
Values after ≈ are worked out from the molar mass of the structure shown. Read-outs that look alike come from different tables or passages of the source.

Columns and labels:
[1] = test system: S. pneumoniae A-9585; assay: In vitro MIC, tube dilution; assay type: cell-based; conditions: Streptococcus pneumoniae, A9585, Nutrient Broth, overnight incubation at 37° C.
[2] = test system: S. pyogenes A-9604; assay: In vitro MIC, tube dilution; assay type: cell-based; conditions: Streptococcus pyogenes, A9604, tube dilution, Nutrient Broth, overnight incubation at 37° C.
[3] = test system: S. aureus A-9537; assay: In vitro MIC, tube dilution; assay type: cell-based; conditions: Staphylococcus aureus, overnight incubation at 37° C.
[4] = test system: S. aureus A-9606 (Pen-res.); assay: In vitro MIC, tube dilution; assay type: cell-based; conditions: Staphylococcus aureus, Nutrient Broth, overnight incubation at 37° C., read-out: MIC S. aureus A-9606 (Pen-res.)
[5] = test system: S. faecalis A20688; assay: In vitro MIC, tube dilution; assay type: cell-based; conditions: Enterococcus faecalis, A20688, tube dilution, Nutrient Broth, overnight incubation at 37° C.
[6] = test system: E. coli A15119; assay: In vitro MIC, tube dilution; assay type: cell-based; conditions: Escherichia coli, A15119, tube dilution, Nutrient Broth, overnight incubation at 37° C.
[7] = test system: E. coli A20341-1; assay: In vitro MIC, tube dilution; assay type: cell-based; conditions: Escherichia coli, A203411, tube dilution, Nutrient Broth, overnight incubation at 37° C.
[8] = test system: K. pneumoniae A-9664; assay: In vitro MIC, tube dilution; assay type: cell-based; conditions: Klebsiella pneumoniae, A9664, tube dilution, Nutrient Broth, overnight incubation at 37° C.
[9] = test system: K. pneumoniae A20468; assay: In vitro MIC, tube dilution; assay type: cell-based; conditions: Klebsiella pneumoniae, A20468, tube dilution, Nutrient Broth, overnight incubation at 37° C.
[10] = test system: P. mirabilis A-9900; assay: In vitro MIC, tube dilution; assay type: cell-based; conditions: Proteus mirabilis, A9900, tube dilution, Nutrient Broth, overnight incubation at 37° C.
[11] = test system: P. vulgaris A21559; assay: In vitro MIC, tube dilution; assay type: cell-based; conditions: Proteus vulgaris, A21559, tube dilution, Nutrient Broth, overnight incubation at 37° C.
[12] = test system: P. morganii A15153; assay: In vitro MIC, tube dilution; assay type: cell-based; conditions: Morganella morganii, A15153, tube dilution, Nutrient Broth, overnight incubation at 37° C.; read-out: MIC P. morganii A15153
[13] = test system: P. rettgeri A22424; assay: In vitro MIC, tube dilution; assay type: cell-based; conditions: Providencia rettgeri, A22424, tube dilution, Nutrient Broth, overnight incubation at 37° C.
[14] = test system: S. marcescens A20019; assay: In vitro MIC, tube dilution; assay type: cell-based; conditions: Serratia marcescens, A20019; tube dilution, Nutrient Broth, overnight incubation at 37° C.
[15] = test system: B. fragilis A22053; assay: In vitro MIC, tube dilution; assay type: cell-based; conditions: Bacteroides fragilis, Nutrient Broth, overnight incubation at 37° C.
Source text: (§1) N-Formimidoyl thienamycin was included as a comparison compound.

[16] = test system: B. fragilis A22696; assay: In vitro MIC, tube dilution; assay type: cell-based; conditions: Bacteroides fragilis, Nutrient Broth, overnight incubation at 37° C.
Source text: as §1

[17] = test system: B. fragilis A22862; assay: In vitro MIC, tube dilution; assay type: cell-based; conditions: Bacteroides fragilis, Nutrient Broth, overnight incubation at 37° C.
Source text: as §1

[18] = test system: B. fragilis A22863; assay: In vitro MIC, tube dilution; assay type: cell-based; conditions: Bacteroides fragilis, Nutrient Broth, overnight incubation at 37° C.
Source text: as §1

[19] = test system: E. cloacae A-9569; assay: In vitro MIC, tube dilution; assay type: cell-based; conditions: Enterobacter cloacae, A9569, Nutrient Broth, overnight incubation at 37° C.
Source text: as §1

[20] = test system: E. cloacae A-9656; assay: In vitro MIC, tube dilution; assay type: cell-based; conditions: Enterobacter cloacae, A9656; tube dilution, Nutrient Broth, overnight incubation at 37° C.
[21] = test system: P. aeruginosa A-9843A; assay: In vitro MIC, tube dilution; assay type: cell-based; conditions: Pseudomonas aeruginosa, A9843A, Nutrient Broth, overnight incubation at 37° C.
[22] = test system: P. aeruginosa A21213; assay: In vitro MIC, tube dilution; assay type: cell-based; conditions: Pseudomonas aeruginosa, A21213, tube dilution, Nutrient Broth, overnight incubation at 37° C.
[23] = test system: P. mirabilis A-9900; assay: Protective effect in the intramuscular treatment of infected mice (PD50); assay type: in vivo; conditions: Proteus mirabilis, A9900, im, read-out: PD50/Treatment, P. mirabilis A-9900
Description: (§2) Treatment Schedule: Mice were treated i.m. with drugs 0 and 2 hours post-infection; 5 mice per dose were used for each test

[24] = test system: P. aeruginosa A-9843a; assay: as above; assay type: in vivo; conditions: Pseudomonas aeruginosa, A9843A, im; mice, challenge 3 × 10^6 organisms, treated i.m. 0 and 2 hours post-infection; read-out: PD50/Treatment, P. aeruginosa A-9843a
Description: The PD50 (dose in mg/kg required to give protection to 50% of the infected mice) is indicated.
as §2
*For compound of Ex. 2, mice were infected i.p. with 2 × 10^9
compounds of Ex. 4 and 5, mice were infected i.p. with ~9 ×
were treated i.m. with drugs 0 and 2 h postinfection.

[25] = Toxicity after intracranial administration to mice; conditions: mouse, in vivo
Source text: | *Average of 25/mice/compound

[26] = Blood levels in mice after intramuscular administration; assay type: in vivo; conditions: mouse, blood, im, mice, i.m. 20 mg/kg
Source text: Compounds were solubilized in 0.1 M phosphate buffer pH 7. Values are fro
a single test; 4 mice used per compound.
*t1/2 refers to halflife in minutes
**AUC refers to the area under the blood concentrationtime curve
(§3) Also shown is the urinary recovery in the mice.
Compounds were solubilized in 0.1 M phosphate buffer, pH 7.
Values based on a single test; 4 mice per compound.
*T1/2 refers to halflife in minutes

[27] = Urinary recovery after intramuscular administration to mice; assay type: in vivo; conditions: mouse, urine, im, 20 mg/kg, mice, i.m. 20 mg/kg
Description: Compounds were solubilized in 0.1 M phosphate buffer pH 7. Values are from a single test; 4 mice per compound.
as §3
***Recovery based on 0-6 hour collection

C[C@@H](O)[C@H]1C(=O)N2C(C(=O)[O-])=C(SCC[N+]3(C)CCCC3)C[C@H]12 [Example 1, 3-[2-(N-methylpyrrolidinium)ethylthio]-6α-[1-(R)-hydroxyethyl]-7-oxo-1-azabicyclo [3.2.0]hept-2-ene-2-carboxylate]
MIC [1]: 0.002 µg/mL (≈ 0.00587 µM)
MIC [2]: 0.002 µg/mL (≈ 0.00587 µM)
MIC ([3]; A9537, + 50% serum, tube dilution, read-out: MIC S. aureus + 50% serum A-9537): 0.016 µg/mL
MIC ([3]; A9537, tube dilution, Nutrient Broth, read-out: MIC S. aureus A-9537): 0.008 µg/mL (≈ 0.0235 µM)
MIC [4]: 0.016 µg/mL (≈ 0.047 µM)
MIC [5]: 1 µg/mL (≈ 2.94 µM)
MIC [6]: 0.03 µg/mL (≈ 0.0881 µM)
MIC [7]: 0.03 µg/mL (≈ 0.0881 µM)
MIC [8]: 0.06 µg/mL (≈ 0.176 µM)
MIC [9]: 0.13 µg/mL (≈ 0.382 µM)
MIC [10]: 0.13 µg/mL (≈ 0.382 µM)
MIC [11]: 0.03 µg/mL (≈ 0.0881 µM)
MIC [12]: 0.13 µg/mL (≈ 0.382 µM)
MIC [13]: 0.25 µg/mL (≈ 0.734 µM)
MIC [14]: 0.06 µg/mL (≈ 0.176 µM)
MIC [15]: 0.25 µg/mL (≈ 0.734 µM)
MIC [16]: 0.5 µg/mL (≈ 1.47 µM)
MIC [17]: 0.13 µg/mL (≈ 0.382 µM)
MIC [18]: 0.13 µg/mL (≈ 0.382 µM)
MIC [19]: 0.25 µg/mL (≈ 0.734 µM)
MIC [20]: 0.13 µg/mL (≈ 0.382 µM)
MIC [21]: 4 µg/mL (≈ 11.7 µM)
MIC [22]: 0.25 µg/mL (≈ 0.734 µM)
ED50 [23]: > 10 mg/kg
ED50 [24]: 3 mg/kg
NOAEL [25]: > 10 mg/kg
LD50 ([25]; intracranial administration to mice, average of 25 mice/compound): > 10 mg/kg
AUC ([26]; 20 mg/kg, Example 1 table, read-out: AUC (area under the blood concentration-time curve)): 5400 ng·h/mL
half-life ([26]; 20 mg/kg, Example 1 table, read-out: t1/2 (half-life in blood)): 11 min
concentration at 10 min ([26]; 10 min, read-out: Blood Level 10 minutes after administration): 13700 ng/mL
concentration at 20 min ([26]; 20 min, read-out: Blood Level 20 minutes after administration): 10200 ng/mL
concentration at 0.5 h ([26]; 30 min, read-out: Blood Level 30 minutes after administration): 5700 ng/mL
concentration at 0.75 h ([26]; 45 min, read-out: Blood Level 45 minutes after administration): 2100 ng/mL
concentration at 1 h ([26]; 60 min, read-out: Blood Level 60 minutes after administration): < 600 ng/mL
concentration at […] ([26]; 90 min, read-out: Blood Level 90 minutes after administration): < 600 ng/mL
dose excreted at 3 h ([27]; 0-3 hours after administration, read-out: Percentage of Dose Recovered in urine, 0-3 hours): 18.8%
dose excreted at 24 h ([27]; 0-24 hours after administration, read-out: Percentage of Dose Recovered in urine, 0-24 hours): 19.5 ± 3.2%
dose excreted at 6 h ([27]; 3-6 hours after administration, read-out: Percentage of Dose Recovered in urine, 3-6 hours): 0.6%
dose excreted at 24 h ([27]; 6-24 hours after administration, read-out: Percentage of Dose Recovered in urine, 6-24 hours): 0.1%
